In EP3466419B1, “USE OF TRIMETHOXYBENZYL ACETYLSINAPATE, ADVANTAGEOUSLY IN COMBINATION WITH AT LEAST ONE SUNSCREEN, FOR PROTECTING THE SKIN” (Thorel, Jean-Noël, priority 2017, dated 2019) one finds activity data, which are given here for 2 compounds.

In this test the test system is Nrf2. The test can be described thus: Induction of the Nrf2 pathway, luciferase reporter assay in the « ARE Reporter-HepG2 » cell model. Format: cell-based. To be noted: 18 hours of contact, relative to solvent control cells. The protocol:
Le but de l'étude est d'évaluer l'induction de la voie Nrf2 dans le modèle cellulaire « ARE Reporter-HepG2 » (HepG2; BPS BIOSCIENCE) [Lee et al., (2004), Dinkova-Kostova et al., (2002)] par l'actif visé dans l'invention.
En parallèle du test de cytotoxicité, des cellules HepG2 ont été également ensemencées dans des puits de plaques à 96 puits (plaques opaques avec fond transparent) à raison de 40 000 cellules/puits (volume de 100 µL), en milieu M1.
Seuls les 60 puits centraux des plaques ont été utilisés, les puits restants n'ont reçu que du PBS.
Après adhésion des cellules, le milieu de culture M1 a été enlevé. Les cellules ont été traitées (volume final: 50 µL) avec le produit à l'essai, dilué dans le milieu de culture M1 (n=3/concentration à tester, 1 concentration/produit), pendant 18 heures. […]
Les puits « sans cellules » ont servi à la détection de la luminescence liée au bruit de fond du milieu. Les puits « cellules témoins » ont servi à la détection de la luminescence intrinsèque du système d'essais (sans activation). […]
A la fin de la période d'incubation (18 heures à 37°C, 5 % de CO2), les cellules ont été lysées par ajout de 100 µL du réactif « One-step luciferase assay system ». La luminescence émise par la luciférase néo-synthétisée a été évaluée avec un luminomètre Optima. […]

In the case of `C[S+]([O-])CCCCN=C=S` (centres unmarked) [sulforaphane], the activity at 3 µM (Homo sapiens, HepG2, 3 µM, read-out: luminescence émise par les cellules HepG2 traitées, en comparaison au témoin solvant (activation de Nrf2)) is 438%. Turning to `COc1cc(COC(=O)/C=C/c2cc(OC)c(OC(C)=O)c(OC)c2)cc(OC)c1OC` [trimethoxybenzyl acetylsinapate, 3-[4-(acetyloxy)-3,5-dimethoxyphenyl] -(3,4,5-trimethoxyphenyl)methyl ester-(2E)-Propenoic acid], the activity at 0.00125 % (dose 0,00125 %, read-out: taux d'activation de Nrf2) is 164%.
